Reference: patent publication US6486198B1, “Compounds and methods for the treatment of post traumatic stress disorder” (priority 1999, dated 2002)

Tests used:
[1] = test system: simple and complex partial seizures and secondarily generalized seizures; conditions: cited from earlier work
PTSD symptoms (PCL-C) = assay: PTSD Checklist-Civilian Version (PCL-C) self-report scale at baseline and 4 weeks after starting topiramate; type: in vivo, human; conditions: 17 patients
Method: Topiramate was added naturalistically to existing pharmacotherapy (see Table 1 for concomitant medications at start of trial), starting at 25 mglday and increasing whenever possible by 25 to 50 mg/day every 3 to 4 days to clinical response. Target symptoms were DSM-IV PTSD criterion B symptoms of nightmares (N =24) and intrusions (intrusive recollections/flashbacks, N=35) involving re-experiencing of traumas. Definitions of improvement, as assessed from patient self-report, included “partial response” as “definite reduction in intensity and frequency of nightmares or intrusions”, and “full response” as “complete cessation of nightmares and intrusions for a sustained period”. Following the seminal observations, in order to systematically identify responsive symptoms, the next 17 patients completed a self-report scale, the PTSD Checklist—Civilian Version (PCL-C)15, at baseline and at 4 weeks after starting topiramate. The patients were instructed to complete the PCL-C for experiences corresponding to traumas consistent with DSM-IV criterion A for PTSD. Paired ttest scores for the PCL-C were calculated with Jandel SigmaStat® v. 2.0.
Response was also assessed in 17 patients who completed the PCL-C prior to topiramate therapy and at Week 4 of treatment: mean total PCL-C scores were 60±10.4 at baseline and 39±10.5 at Week 4 (instrument range: 17 to 85, threshold for active PTSD=[…], paired t-test). Adjusting the baseline score by subtracting by 17 to set the score for no PTSD symptoms to zero, there was a 48% reduction (59.8 to 38.8)/(59.8-17) in total score. Subscale score reductions were similar for criterion B (re-experiencing), criterion C (avoidance), and criterion D (hyperarousal) symptoms: 60%, 49%, and 42%, respectively.

## CC1(C)O[C@@H]2[C@@H](CO[C@@]3(COS(N)(=O)=O)OC(C)(C)O[C@@H]23)O1 [Topiramate, 2,3:4,5-bis-O-(1-methylethylidene)-β-D-fructopyranose sulfamate]
[1]; adults and children
  Efficacy in treatment of seizure types: efficacy in the treatment of a broad range of seizure types
[1]; simple and complex partial seizures and secondarily generalized seizures
  Efficacy in clinical trials of human epilepsy: effective as adjunctive therapy or as monotherapy
PTSD symptoms (PCL-C); baseline vs Week 4
  PCL-C subscale score reduction, criterion B (re-experiencing): 60%
  PCL-C subscale score reduction, criterion C (avoidance): 49%
  PCL-C subscale score reduction, criterion D (hyperarousal): 42%
  Reduction in total PCL-C score (baseline adjusted by subtracting 17): 48%
PTSD symptoms (PCL-C); baseline 60±10.4, instrument range 17 to 85, threshold for active PTSD=50
  Mean total PCL-C score at Week 4: 39±10.5
